For 13 molecules, EC50 and Activity results are on record in ChEMBL document CHEMBL4811243, “Design, synthesis, and biological evaluation of a novel dual peroxisome proliferator-activated receptor alpha/delta agonist for the treatment of diabetic kidney disease through anti-inflammatory mechanisms” (Eur J Med Chem, 2021).

In data set [1] the target is T1, Peroxisome proliferator-activated receptor gamma (Homo sapiens, UniProt P37231).
T1 sequence (P37231 whole entry): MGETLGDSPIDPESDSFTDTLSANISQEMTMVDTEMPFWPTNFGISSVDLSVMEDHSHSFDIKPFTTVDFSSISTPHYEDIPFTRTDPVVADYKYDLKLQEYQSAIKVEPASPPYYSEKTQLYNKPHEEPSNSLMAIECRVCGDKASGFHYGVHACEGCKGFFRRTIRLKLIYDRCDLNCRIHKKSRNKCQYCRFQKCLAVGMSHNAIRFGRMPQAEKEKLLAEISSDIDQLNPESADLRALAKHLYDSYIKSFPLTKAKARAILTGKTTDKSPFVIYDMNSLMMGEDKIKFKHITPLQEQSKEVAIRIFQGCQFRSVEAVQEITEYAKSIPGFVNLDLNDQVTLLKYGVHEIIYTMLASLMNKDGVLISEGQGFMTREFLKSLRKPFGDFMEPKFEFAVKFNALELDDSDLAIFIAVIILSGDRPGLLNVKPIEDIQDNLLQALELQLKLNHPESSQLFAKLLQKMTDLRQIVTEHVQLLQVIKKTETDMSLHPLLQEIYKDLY
The experiment in a line: Agonist activity at human Gal4 fused PPARgamma LBD expressed in COS-7 cells incubated for 24 hrs by firefly luciferase reporter gene assay. It is filed as cell-based.

Data set [2] concerns the target T2, Peroxisome proliferator-activated receptor alpha (Homo sapiens, UniProt Q07869).
T2 sequence (Q07869 whole entry): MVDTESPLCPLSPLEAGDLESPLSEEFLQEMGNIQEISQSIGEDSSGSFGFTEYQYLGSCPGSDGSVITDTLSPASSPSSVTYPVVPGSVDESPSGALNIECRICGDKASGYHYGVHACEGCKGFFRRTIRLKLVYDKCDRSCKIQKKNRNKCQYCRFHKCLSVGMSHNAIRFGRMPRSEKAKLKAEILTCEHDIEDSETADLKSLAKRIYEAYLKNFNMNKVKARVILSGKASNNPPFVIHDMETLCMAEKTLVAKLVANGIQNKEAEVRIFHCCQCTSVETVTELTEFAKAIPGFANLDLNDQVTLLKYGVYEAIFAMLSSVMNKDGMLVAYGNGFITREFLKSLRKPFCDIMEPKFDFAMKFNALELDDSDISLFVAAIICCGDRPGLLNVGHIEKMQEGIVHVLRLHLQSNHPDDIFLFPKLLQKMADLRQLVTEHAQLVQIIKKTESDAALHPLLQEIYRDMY
The experiment in a line: Agonist activity at human Gal4 fused PPARalpha LBD expressed in COS-7 cells incubated for 24 hrs by firefly luciferase reporter gene assay. It is filed as cell-based.

The target in data set [3] is T3, Peroxisome proliferator-activated receptor delta (Homo sapiens, UniProt Q03181).
T3 sequence (Q03181 whole entry): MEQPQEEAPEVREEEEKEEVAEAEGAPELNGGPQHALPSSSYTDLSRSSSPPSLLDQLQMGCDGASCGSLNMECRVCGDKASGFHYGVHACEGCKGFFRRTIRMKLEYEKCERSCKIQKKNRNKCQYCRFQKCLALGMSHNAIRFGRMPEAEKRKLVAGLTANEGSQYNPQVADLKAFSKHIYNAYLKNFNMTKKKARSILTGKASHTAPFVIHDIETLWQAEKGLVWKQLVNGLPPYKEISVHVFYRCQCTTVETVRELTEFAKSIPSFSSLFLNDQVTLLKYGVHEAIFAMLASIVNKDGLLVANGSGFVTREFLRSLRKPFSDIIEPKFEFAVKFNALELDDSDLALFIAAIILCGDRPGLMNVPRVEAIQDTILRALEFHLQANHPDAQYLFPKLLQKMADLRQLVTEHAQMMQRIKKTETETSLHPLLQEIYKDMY
The experiment in a line: Agonist activity at human Gal4 fused PPARdelta LBD expressed in COS-7 cells incubated for 24 hrs by firefly luciferase reporter gene assay. It is filed as cell-based.

A short description of data set [4]: Cytotoxicity against human GMCs assessed as reduction in cell viability at 1 to 30 uM after 48 hrs by CCK-8 assay. The class given is tissue-based. To be noted: glomerular mesangial cell, dose 1-30 µM.
Data set [5] can be described thus: Hepatotoxicity in STZ-induced Sprague-Dawley rat diabetic kidney disease model assessed as serum ALT level at 25 to 50 mg/kg, po administered twice a day for 6 weeks. It is filed as toxicity, organism-based. Conditions: in vivo, 1008 h, dose 25-50 mg/kg.
The nature of data set [6]: Hepatotoxicity in STZ-induced Sprague-Dawley rat diabetic kidney disease model assessed as serum AST level at 25 to 50 mg/kg, po administered twice a day for 6 weeks. The class given is toxicity, organism-based. Conditions: in vivo, 1008 h, dose 25-50 mg/kg.
For data set [7], the system named is THP-1. The experiment in a line: Cytotoxicity against human THP-1 assessed as reduction in cell viability at 1 to 30 uM after 48 hrs by CCK-8 assay. It is filed as cell-based. To be noted: thp-1, 48 h, dose 1-30 µM.

For the molecule `CCOc1ccc(/C=C2\Oc3cc(OCc4cc(C)c(OC(C)(C)C(=O)O)c(C)c4)ccc3C2=O)cc1`, the half-maximal effective concentration (EC50) in data set [1] and in data set [2] was > 10 µM each time.

Consider `Cc1cc(COc2ccc3c(c2)O/C(=C\c2ccc(C#N)cc2)C3=O)cc(C)c1OC(C)(C)C(=O)O`, for which the EC50 in data set [1] was > 10 µM.

Consider `Cc1ccc(/C=C2\Oc3cc(OCc4cc(C)c(OC(C)(C)C(=O)O)c(C)c4)ccc3C2=O)cc1`, for which, in data set [1], the EC50 is > 10 µM.

For `Cc1cc(COc2ccc3c(c2)O/C(=C\c2ccc(Br)cc2)C3=O)cc(C)c1OC(C)(C)C(=O)O`, the EC50 in data set [1] was > 10 µM.

Take `Cc1cc(COc2ccc3c(c2)O/C(=C\c2ccccc2C(F)(F)F)C3=O)cc(C)c1OC(C)(C)C(=O)O`: the EC50 in data set [1] was > 10 µM.

Turning to `COc1ccc(/C=C2\Oc3cc(OCc4cc(C)c(OC(C)(C)C(=O)O)c(C)c4)ccc3C2=O)cc1`, the EC50 in data set [1] and in data set [2] was > 10 µM throughout.

Consider `Cc1cc(COc2ccc3c(c2)O/C(=C\c2ccc(F)cc2)C3=O)cc(C)c1OC(C)(C)C(=O)O`, for which the 50% effective concentration (EC50) in data set [1], in data set [2] and in data set [3] was > 10 µM in each case.

`Cc1cc(COc2ccc3c(c2)O/C(=C\c2ccccc2)C3=O)cc(C)c1OC(C)(C)C(=O)O`: in data set [1], the EC50 was > 10 µM.

Consider `Cc1cc(COc2ccc3c(c2)O/C(=C\c2ccc(C(C)C)cc2)C3=O)cc(C)c1OC(C)(C)C(=O)O`, for which the EC50 in data set [1] was > 10 µM.

Turning to `Cc1cc(COc2ccc3c(c2)O/C(=C\c2ccc4ccccc4c2)C3=O)cc(C)c1OC(C)(C)C(=O)O`, the half-maximal effective concentration (EC50) in data set [1] was > 10 µM.

In the case of `Cc1cc(COc2ccc3c(c2)O/C(=C\c2ccc(C(F)(F)F)cc2)C3=O)cc(C)c1OC(C)(C)C(=O)O`, the Activity entry in data set [4], in data set [5], in data set [6] and in data set [7] was “Non-Toxic” throughout.

Turning to `Cc1cc(COc2ccc3c(c2)O/C(=C\c2ccc(Cl)cc2)C3=O)cc(C)c1OC(C)(C)C(=O)O`, the EC50 in data set [1] is > 10 µM.

For `CSc1ccc(C(=O)/C=C/c2cc(C)c(OC(C)(C)C(=O)O)c(C)c2)cc1` [ELAFIBRANOR], the EC50 in data set [1] was found to be 2.79 µM; in data set [2], 0.76 µM.
